Measured values published in PMC3429506, “Screening for Novel LRRK2 Inhibitors Using a High-Throughput TR-FRET Cellular Assay for LRRK2 Ser935 Phosphorylation” (PLoS ONE, 2012).
Read-outs that look alike come from different tables or passages of the source.

How the values were obtained:
[1] = biological target: T1, LRRK2-GFP (Homo sapiens, UniProt Q5S007, G2019S); assay: Western blot analysis of LRRK2-GFP phosphorylation in BacMam transduced U-2 OS cells; assay type: cell-based; conditions: BacMam LRRK2-GFP G2019S, 10 µM, Figure S1
T1 construct: GFP is fused to the C-terminus of full-length human LRRK2 wild-type, G2019S, R1441C and kinase-dead D1994A; host or cells: U-2 OS cells transduced with BacMam
Protocol: (§1) Immunoblot analysis: BacMam LRRK2-GFP transduced U-2 OS or SH-SY5Y cells (10^7 cells) were left untreated or treated with 3 µM LRRK2-IN-I for 90 min. For lysate preparation, the cells were washed once with ice-cold PBS and lysed by addition of ice-cold lysis buffer (20 mM Tris-HCl, pH 7.4, 1% NP-40, 5 mM EDTA, 5 mM NaF, 150 mM NaCl, and 1∶100 of protease and phosphatase inhibitor cocktails). The lysate was cleared of debris by centrifugation. Equal amount of total protein was loaded onto each lane for SDS-PAGE (3–8% Tris Acetate). The proteins were transferred onto nitrocellulose membrane using the iBLOT® dry blotting system (Life Technologies) according to manufacturer’s protocol. The membranes were blocked and incubated with a primary antibody against LRRK2 (Cell Signaling Technologies), followed by incubation with alkaline phosphatase-conjugated secondary antibody (WesternBreeze® chromogenic Kit, Life Technologies). The blot was developed by using the chromogenic BCIP/NBT substrate (WesternBreeze® chromogenic Kit, Life Technologies). […]

[2] = tested on: LRRK2-GFP; assay: as above; assay type: cell-based, human; conditions: LRRK2-IN-1 3 µM 90 min, wild-type, G2019S, R1441C, Figure 1B
Protocol: as §1

[3] = tested on: LRRK2-GFP; assay: Western blot analysis of LRRK2-GFP Ser935 phosphorylation in BacMam transduced SH-SY5Y cells; assay type: cell-based, human; conditions: LRRK2-IN-1 3 µM 90 min, wild-type, G2019S, R1441C, Figure 3A
Protocol: Immunoblot analysis: BacMam LRRK2-GFP transduced U-2 OS or SH-SY5Y cells (10^7 cells) were left untreated or treated with 3 µM LRRK2-IN-I for 90 min. For lysate preparation, the cells were washed once with ice-cold PBS and lysed by addition of ice-cold lysis buffer (20 mM Tris-HCl, pH 7.4, 1% NP-40, 5 mM EDTA, 5 mM NaF, 150 mM NaCl, and 1∶100 of protease and phosphatase inhibitor cocktails). The lysate was cleared of debris by centrifugation. Equal amount of total protein was loaded onto each lane for SDS-PAGE (3–8% Tris Acetate). The proteins were transferred onto nitrocellulose membrane using the iBLOT® dry blotting system (Life Technologies) according to manufacturer’s protocol. The membranes were blocked and incubated with a primary antibody against LRRK2 (Cell Signaling Technologies), followed by incubation with alkaline phosphatase-conjugated secondary antibody (WesternBreeze® chromogenic Kit, Life Technologies). The blot was developed by using the chromogenic BCIP/NBT substrate (WesternBreeze® chromogenic Kit, Life Technologies). […] Two days post induction, cells were treated for 90 minutes in the presence of 20 µM of compound or DMSO vehicle control. […]

[4] = biological target: LRRK2 wild-type (Homo sapiens, UniProt Q5S007); assay: TR-FRET cellular assay for LRRK2 Ser935 phosphorylation, SH-SY5Y cells, BacMam LRRK2-GFP wild-type; assay type: cell-based; parameters: This high-throughput assay utilizes cells expressing full-length human LRRK2 with a C-terminal GFP tag (LRRK2-GFP); host or cells: SH-SY5Y cells transduced with BacMam
Protocol: U-2 OS cells are maintained in growth medium (McCoy’s 5A supplemented with 10% dialyzed FBS (dFBS), 10 mM HEPES, 0.1 mM NEAA, 1 mM Sodium Pyruvate, and 100 U/mL Penicillin/100 µg/mL Streptomycin). HEK293T cells are maintained in DMEM with 10% dFBS, 10 mM HEPES, 0.1 mM NEAA and 100 U/mL Penicillin/100 µg/mL Streptomycin. SH-SY5Y cells are maintained in DMEM/F-12 medium supplemented with 10% dFBS and 100 U/mL Penicillin/100 µg/mL Streptomycin. […] GIBCO® human neural stem cells (hNSCs) were propagated as an adherent culture in StemPro® NSC SFM according to the manufacturer’s recommended protocol (Life Technologies). For BacMam transduction of U-2 OS and HEK293T, cells were harvested, mixed with various amounts of BacMam LRRK2-GFP reagent (v/v) and plated onto 6-well plates. […] Cells were assayed in 384-well format (∼20,000 cells/well) 48 hours post-transduction as above.
Transduced cells in the 384-well assay plate were incubated with indicated inhibitors (5X, 5 µL/well) for 60 to 90 minutes. During this time, 6 X lysis buffer (Life Technologies) was supplemented with 30 nM Tb-labeled anti-LRRK2 pSer935 antibody and both protease and phosphatase inhibitor cocktails (Sigma). The complete 6 X lysis buffer was added to each well (5 µL/well) and the plates were incubated at room temperature in the dark for 2 hours. […] A sigmoidal dose-response equation with varying slope was used to fit the data and generate IC50 values. Z′-factor values were calculated as: Z′-factor = 1 - [(3 × stdevno virus +3 × stdevmaxvirus)/(avgmaxvirus – avgno-virus)]. The IC50 values reported in Table 1 are the averaged numbers from three independent experiments.

Sequence of LRRK2 wild-type (Q5S007 whole entry): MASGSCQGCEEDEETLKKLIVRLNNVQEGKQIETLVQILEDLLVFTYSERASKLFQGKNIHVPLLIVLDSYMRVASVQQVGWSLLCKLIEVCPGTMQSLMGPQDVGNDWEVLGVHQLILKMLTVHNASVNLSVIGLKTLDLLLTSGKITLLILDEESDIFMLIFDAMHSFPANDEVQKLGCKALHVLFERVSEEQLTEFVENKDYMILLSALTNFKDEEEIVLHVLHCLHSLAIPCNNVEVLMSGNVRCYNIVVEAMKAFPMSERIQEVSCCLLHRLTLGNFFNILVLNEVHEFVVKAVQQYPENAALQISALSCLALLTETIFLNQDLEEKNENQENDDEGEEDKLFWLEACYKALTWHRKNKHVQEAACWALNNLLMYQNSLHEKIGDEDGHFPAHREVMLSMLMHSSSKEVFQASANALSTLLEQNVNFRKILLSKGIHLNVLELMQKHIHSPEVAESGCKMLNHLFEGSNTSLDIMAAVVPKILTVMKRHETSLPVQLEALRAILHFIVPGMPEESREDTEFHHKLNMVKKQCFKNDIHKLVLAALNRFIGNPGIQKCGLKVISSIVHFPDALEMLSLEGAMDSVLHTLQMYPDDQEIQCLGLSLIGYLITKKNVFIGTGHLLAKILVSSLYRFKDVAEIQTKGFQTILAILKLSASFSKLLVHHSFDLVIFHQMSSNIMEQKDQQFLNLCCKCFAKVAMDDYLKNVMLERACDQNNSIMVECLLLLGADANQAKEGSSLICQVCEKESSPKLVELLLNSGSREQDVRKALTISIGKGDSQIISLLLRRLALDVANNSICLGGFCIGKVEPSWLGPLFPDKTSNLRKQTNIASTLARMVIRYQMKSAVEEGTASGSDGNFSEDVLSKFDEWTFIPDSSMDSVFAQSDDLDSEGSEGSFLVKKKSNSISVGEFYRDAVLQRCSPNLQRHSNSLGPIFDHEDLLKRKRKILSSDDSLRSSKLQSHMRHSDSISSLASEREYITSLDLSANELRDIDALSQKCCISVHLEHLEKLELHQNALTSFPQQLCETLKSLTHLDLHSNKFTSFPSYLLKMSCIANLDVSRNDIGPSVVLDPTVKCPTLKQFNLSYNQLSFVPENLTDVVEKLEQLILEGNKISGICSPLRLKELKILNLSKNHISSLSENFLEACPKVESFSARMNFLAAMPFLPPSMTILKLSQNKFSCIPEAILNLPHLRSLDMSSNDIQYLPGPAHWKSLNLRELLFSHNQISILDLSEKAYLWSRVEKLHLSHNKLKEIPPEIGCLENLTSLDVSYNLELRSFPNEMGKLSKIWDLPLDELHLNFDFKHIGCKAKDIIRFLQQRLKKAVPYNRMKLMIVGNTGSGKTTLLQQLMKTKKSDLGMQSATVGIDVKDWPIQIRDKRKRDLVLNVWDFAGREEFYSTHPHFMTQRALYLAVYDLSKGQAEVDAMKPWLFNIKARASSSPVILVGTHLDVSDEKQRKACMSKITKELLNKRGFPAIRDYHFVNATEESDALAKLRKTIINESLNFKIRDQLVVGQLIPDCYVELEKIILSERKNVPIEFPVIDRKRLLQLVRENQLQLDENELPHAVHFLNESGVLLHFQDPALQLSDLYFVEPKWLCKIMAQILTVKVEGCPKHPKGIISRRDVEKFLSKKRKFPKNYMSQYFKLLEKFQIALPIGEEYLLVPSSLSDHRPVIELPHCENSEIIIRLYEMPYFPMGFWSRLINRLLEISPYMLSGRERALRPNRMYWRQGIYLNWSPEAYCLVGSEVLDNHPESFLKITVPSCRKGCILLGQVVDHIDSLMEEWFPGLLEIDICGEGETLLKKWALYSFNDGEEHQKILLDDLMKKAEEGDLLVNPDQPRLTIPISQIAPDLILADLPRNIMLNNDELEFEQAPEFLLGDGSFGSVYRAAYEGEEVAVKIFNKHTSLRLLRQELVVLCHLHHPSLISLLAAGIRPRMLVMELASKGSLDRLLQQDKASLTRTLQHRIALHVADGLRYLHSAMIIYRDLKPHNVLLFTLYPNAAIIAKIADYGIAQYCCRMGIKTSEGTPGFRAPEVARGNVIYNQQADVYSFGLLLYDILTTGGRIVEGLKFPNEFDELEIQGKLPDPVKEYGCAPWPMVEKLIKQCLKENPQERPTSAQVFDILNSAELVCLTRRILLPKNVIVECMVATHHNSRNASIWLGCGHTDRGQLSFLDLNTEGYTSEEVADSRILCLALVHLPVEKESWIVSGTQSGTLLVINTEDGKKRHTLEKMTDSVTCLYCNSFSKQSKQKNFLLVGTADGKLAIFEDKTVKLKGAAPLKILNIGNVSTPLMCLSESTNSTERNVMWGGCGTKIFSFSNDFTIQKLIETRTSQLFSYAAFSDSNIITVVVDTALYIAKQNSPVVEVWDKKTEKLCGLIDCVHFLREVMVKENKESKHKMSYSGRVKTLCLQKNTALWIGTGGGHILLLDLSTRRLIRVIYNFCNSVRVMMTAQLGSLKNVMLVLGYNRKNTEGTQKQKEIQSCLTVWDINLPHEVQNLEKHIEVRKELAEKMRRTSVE
T1 sequence (Q5S007 whole entry G2019S, the tested form may be a part): as the sequence (Q5S007 whole entry) above, with G2019S counted along it

## COc1cc(C(=O)N2CCC(N3CCN(C)CC3)CC2)ccc1Nc1ncc2c(n1)N(C)c1ccccc1C(=O)N2C [LRRK2-IN-1]
[1]
  phosphorylation at Ser910, Ser935, Ser955 and Ser973 by immunoblot: responsive to LRRK2-IN-1 treatment
[2]
  Ser935 phosphorylation by Western blot: diminished
[3]
  Ser935 phosphorylation by Western blot: significantly reduced
[4]; 25% BacMam wild-type, 90 min, Figure 3C, read-out: IC50, inhibition of TR-FRET signal (Ser935 phosphorylation)
  IC50: 170 nM
[4]; WT, +/- SD, three independent experiments, * = partial inhibition, read-out: IC50, TR-FRET cell-based assay for Ser935 phosphorylation of LRRK2
  IC50: 200 nM
